Experimental data: US20190040016A1, “INDOLE AND INDAZOLE COMPOUNDS AND THERAPEUTIC USES THEREOF” (REGENTS OF THE UNIVERSITY OF MINNESOTA, priority 2016, published 2019)

Columns and labels:
[1] = system: 4T1 (a metastatic murine breast cancer cell line); test: In vitro cytotoxicity evaluation, 4T1; type: cell-based; settings: Mus musculus; 4T1 cells; average ± SEM of minimum three individual experiments
Excerpt: (§1) […] Cell line MDA-MB-231 (a human triple negative breast cancer cell line) and cell line 4T1 (a metastatic murine breast cancer cell line) were used for testing.

[2] = system: MDA-MB-231 (a human triple negative breast cancer cell line); test: In vitro cytotoxicity evaluation, MDA-MB-231; type: cell-based; settings: MDA-MB-231 cells, average ± SEM of minimum three individual experiments
Excerpt: as §1

Row | Compound | IC50 [1] [µM] | IC50 [2] [µM]
1 | C=C(COC(=O)c1nn(-c2ccc(N(Cc3ccc(Cl)cc3)Cc3ccc(Cl)cc3)cc2)c2ccccc12)C(=O)OC [Compound A-5] | > 25 | > 25
2 | C=C(COC(=O)c1nn(-c2ccc(N(Cc3ccc(F)cc3)Cc3ccc(F)cc3)cc2)c2ccccc12)C(=O)OC [Compound A-7] | 10.8 ± 2.28 | > 25
3 | COC(=O)c1nn(-c2ccc(N(Cc3ccccc3)Cc3ccccc3)cc2)c2ccccc12 [Compound A-2] | > 25 | > 25
4 | C=C(COC(=O)c1nn(-c2ccc(N(Cc3ccccc3)Cc3ccccc3)cc2)c2ccccc12)C(=O)OC [Compound A-3] | > 25 | > 25
5 | COC(=O)C(O)(CO)COC(=O)c1nn(-c2ccc(N(Cc3ccccc3)Cc3ccccc3)cc2)c2ccccc12 (centres unmarked) [Compound A-4] | 4.9 ± 0.42 | 2.33 ± 0.48
6 | COC(=O)C(O)(CO)COC(=O)c1nn(-c2ccc(N(Cc3ccc(Cl)cc3)Cc3ccc(Cl)cc3)cc2)c2ccccc12 (centres unmarked) [Compound A-6] | 4.8 ± 1.01 | 4.51 ± 0.95
7 | O=C(O)c1nn(-c2ccc(N(Cc3ccccc3)Cc3ccccc3)cc2)c2ccccc12 [Compound A-1] | > 25 | > 25
8 | COC(=O)C(O)(CO)COC(=O)c1nn(-c2ccc(N(Cc3ccc(F)cc3)Cc3ccc(F)cc3)cc2)c2ccccc12 (centres unmarked) [Compound A-8] | 2.87 ± 0.86 | 3.02 ± 0.68
9 | C=C(COC(=O)c1nn(-c2ccc(N(Cc3ccc(OC)cc3)Cc3ccc(OC)cc3)cc2)c2ccccc12)C(=O)OC [Compound A-9] | > 25 | > 25
10 | COC(=O)C(O)(CO)COC(=O)c1nn(-c2ccc(N(Cc3ccc(OC)cc3)Cc3ccc(OC)cc3)cc2)c2ccccc12 (centres unmarked) [Compound A-10] | 7.12 ± 1.13 | 4.96 ± 1.19
